According to patent publication US5998477A, “Substituted methoxy benzylidene indenyl-acetic and propionic acids for treating patients with precancerous lesions” (Cell Pathways Inc., priority 1997, dated 1999):
“Also recorded” adds a separate entry of the source.

What was measured:
[1] = test system: prostaglandin synthesis; conditions: background; cited from earlier work
[2] = background; cited from earlier work
[3] = test system: precancerous lesions; conditions: background; cited from earlier work
[4] = test system: DMBA-Induced Mammary Lesions in Organ Culture; experiment: Mouse mammary gland organ culture, DMBA-induced mammary lesions; assay type: cell-based, mouse (BALB/c); conditions: vs. vehicle (DMSO), read-out: Percent Inhibition
Protocol: The compound of Example No. 1 was also tested for its ability to inhibit the incidence of mammary lesions in an organ culture system. This mouse mammary gland organ culture technique has been successfully used by other investigators to study the effects of known cancer-chemopreventative agents such as retinoids and selenium.
Female BALB/c mice, 28 days old, were treated for nine days with a combination of 1 μg of estradiol and 1 mg of progesterone daily, in order to prime the glands to be responsive to hormones in vitro. The animals were sacrificed and thoracic mammary glands were excised aseptically and incubated for ten days in growth media supplemented with growth-promoting hormones: insulin, prolactin, and hydrocortisone, at 5 μg/ml each and aldosterone at 1 μg/ml. A twenty-four hour treatment of 7,12-dimethylbenz(a)anthracene (DMBA, 2 μg/ml) was carried out between days three and four to induce the formation of mammary lesions. Fully developed glands were deprived of prolactin, hydrocortisone, and aldosterone for 14 days, resulting in the regression of the glands but not the mammary lesions. […]
The extent of the area occupied by the mammary lesions was quantitated by projecting an image of the gland onto a digitation pad. […] The space covered by each of the unregressed structures was also outlined on the digitization pad and quantitated by the computer.

[5] = test system: HT-29; experiment: Apoptosis/Necrosis by fluorescent microscopy (acridine orange and ethidium bromide); assay type: cell-based, human
Protocol: (§1) Drug stock solutions were made in 100% DMSO then diluted with RPMI media for cell culture testing. All drug solutions were prepared fresh on the day of testing. The cultured cells were obtained at passage #118 and grown in RPMI media supplemented with 5% fetal calf serum, and 2 mM glutamine, 100 U/ml penicillin, 100 U/ml streptomycin, and 0.25 μg/ml amphotericin. The cultures were maintained in a humidified atmosphere of 95% air and 5% CO2 at 37° C. The cultures were passaged at preconfluent densities using a solution of 0.05% trypsin and 0.53 mM EDTA. All experiments involved HT-29 cells between passages 120 and 140, except for the compound of Example 29 which involved SW-480 cell line. Cells were plated at the following densities to obtain cultures used for the experiments: 500 cells/well for 96 well flat-bottom microtiter plates, 1×10^6 cells 2 per 25 cm^2 flask.
Apoptosis and necrosis were measured using an assay that allowed for the simultaneous measurement of both types of cell death based on morphological characteristics of apoptotic cells (i.e., condensed chromatin) and membrane permeability. Drug preparation and cell culture conditions were the same as for the SRB assay described above. Confluent cultures were established in 25 cm^2 flasks. The cultures were assayed for apoptosis and necrosis by fluorescent microscopy following labeling with acridine orange and ethidium bromide. Floating and attached cells were collected by trypsinization and washed three times in PBS. One ml aliquots of 1×10^6 cells were centrifuged (300 g). The pellet was resuspended in 25 μl media and 1 μl of a dye mixture containing 100 μg/ml acridine orange and 100 μg/ml ethidium bromide prepared in PBS and mixed gently. Ten μl of mixture was placed on a microscope slide and covered with a 22 mm^2 coversilp and examined under 40× dry objectives using epillumination and filter combination.
An observer blinded to the identity of the treatments scored at least 100 cells per sample. Apoptotic cells were identified by nuclear condensation of chromatin stained by the acridine orange or ethidium bromide, respectively. Necrotic cells were identified by uniform labelling of the cell with ethidium bromide.

[6] = test system: SW-480 cell line; experiment: Tumor cell growth inhibition, Sulforhodamine B (SRB) protein binding assay, SW-480; assay type: cell-based; conditions: Homo sapiens, SW480, 144 h, SW-480, six days exposure, read-out: Single Dose Percent Inhibition
Protocol: as §1
Tumor cell growth inhibition was assessed using the Sulforhodamine B (SRB) protein binding assay. In this assay, tumor cells were plated in 96-well plates and treated with drug-containing media for six days (continuous exposure). […] The dye was then solubilized, and the optical density of the resulting solution was determined on a 96-well plate reader. […]
For each experiment, an IC50 value was determined, if possible, and used for comparative purposes. […]

[7] = background; cited from earlier work; remark: listed apart in the source
[8] = background; sulfoxide itself; cited from earlier work
[9] = test system: colonic polyps; conditions: patients taking the drug; cited from earlier work

For CSc1ccc(/C=C2/C(C)=C(CC(=O)O)c3cc(F)ccc32)cc1 [Sulindac Sulfide], the prostaglandin synthesis inhibition [1] is given as “active moiety as a prostaglandin synthesis inhibitor” and the side effects [2] is given as “associated with the side effects of conventional NSAIDs”.
For CC1=C(CC(=O)O)c2cc(F)ccc2/C1=C\c1ccc(S(C)(=O)=O)cc1 [sulfone], the “inhibition of precancerous lesions” value [3] is given as “active as an inhibitor of precancerous lesions” and the prostaglandin synthesis inhibition [1] is given as “inactive as an inhibitor of prostaglandin synthesis”.
With COc1cc(/C=C2/C(C)=C(CC(=O)O)c3cc(F)ccc32)cc(OC)c1OC [Example 1, (Z)-5-fluoro-2-methyl-1-(3,4,5-trimethoxybenzylidene)-3-indenyl-acetic acid] the inhibition at 10 µM ([4]; 10 μM) was 50%, the inhibition at 100 µM ([4]; 100 μM) was 100% and the “% Apoptotic Cells” value ([5]; 200 μM) was greater than 90%.
COc1cc(/C=C2/C(C)=C(CC(=O)O)c3cc(F)ccc32)cc(Br)c1OC [Example 29, (Z)-5-fluoro-2-methyl-1-(3-bromo-4,5-dimethoxybenzylidene)-3-indenyl-acetic acid] gave an inhibition at 100 µM [6] of 80%.
For CC1=C(CC(=O)O)c2cc(F)ccc2/C1=C\c1ccccc1 [Example 10, (Z)-5-fluoro-2-methyl-1-benzylidene-3-indenyl-acetic acid], the “% Apoptotic Cells” value ([5]; 300 μM) was 90%.
With CC1=C(CC(=O)O)c2cc(F)ccc2/C1=C\c1c(Cl)cccc1Cl [Example 6, (Z)-5-fluoro-2-methyl-1-(2,6-dichlorobenzylidene)-3-indenyl-acetic acid] the “% Apoptotic Cells” value ([5]; 200 μM) was 60% and the “% Necrotic Cells” value ([5]; 200 μM) was 40%.
In the case of COc1cc(OC)c(OC)cc1/C=C1/C(C)=C(CC(=O)O)c2cc(F)ccc21 [Example 8, (Z)-5-fluoro-2-methyl-1-(2,4,5-trimethoxybenzylidene)-3-indenyl-acetic acid], the “% Apoptotic Cells” value ([5]; 200 μM) is reported as greater than 90%.
With COc1ccc(/C=C2/C(C)=C(CC(=O)O)c3cc(F)ccc32)cc1 [Example 11, (Z)-5-fluoro-2-methyl-1-(4-methoxybenzylidene)-3-indenyl-acetic acid] the “% Apoptotic Cells” value ([5]; 200 μM) was greater than 90%.
In the case of CC1=C(CC(=O)O)c2cc(F)ccc2/C1=C\c1ccc([S+](C)[O-])cc1 (stereo not drawn) [Sulindac], the metabolic conversion [7] is given as “converted by liver enzymes to the corresponding sulfide; also recorded: metabolized to sulfone compound”, the anti-arthritic activity [8] is given as “believed to be inactive as an anti-arthritic agent” and the effect on polyps [9] is given as “Polyps virtually disappear”.
In the case of COc1ccc(/C=C2/C(C)=C(CC(=O)O)c3cc(F)ccc32)c(OC)c1OC [Example 7, (Z)-5-fluoro-2-methyl-1-(2,3,4-trimethoxybenzylidene)-3-indenyl-acetic acid], the “% Apoptotic Cells” value ([5]; 200 μM) is reported as greater than 90%.
For COc1cc(OC)c(/C=C2/C(C)=C(CC(=O)O)c3cc(F)ccc32)c(OC)c1 [Example 4, (Z)-5-fluoro-2-methyl-1-(2,4,6-trimethoxybenzyildene)-3-indenyl-acetic acid], the “% Apoptotic Cells” value ([5]; 200 μM) was greater than 90%.
